Experiments:
Format in all cases: functional
Thanatephorus cucumeris [1] = experiment: Fungicidal activity against Thanatephorus cucumeris assessed as rice sheath blight disease control at 7.8 ppm foliar application for 24 hr before inoculation at 26 +- 2 measured after 5 days by preventive manner
Botrytis cinerea [2] = experiment: Fungicidal activity against Botryotinia fuckeliana assessed as cucumber gray mold disease control at 125 ppm foliar application 24 hr after inoculation at 22 +/- 2 degC measured after 3 days by curative manner
Botrytis cinerea [3] = experiment: Fungicidal activity against Botryotinia fuckeliana assessed as cucumber gray mold disease control at 7.8 ppm foliar application 24 hr after inoculation at 22 +/- 2 degC measured after 3 days by curative manner
Podosphaera fuliginea [4] = experiment: Fungicidal activity against Podosphaera fuliginea assessed as cucumber powdery mildew control under greenhouse at 125 ppm foliar application 24 hr after inoculation on upper surface of leaf at 23 +/- 2 degC by curative manner
[5] = test system: Pseudoperonospora cubensis; experiment: Fungicidal activity against Pseudoperonospora cubensis assessed as cucumber downy mildew disease control at 125 ppm foliar application 24 hr after inoculation on upper surface of leaf by curative manner
[6] = test system: Pseudoperonospora cubensis; experiment: Fungicidal activity against Pseudoperonospora cubensis assessed as cucumber downy mildew disease control at 125 ppm foliar application 24 hr before inoculation on upper surface of leaf by preventive manner
Botrytis cinerea [7] = experiment: Fungicidal activity against Botryotinia fuckeliana assessed as cucumber gray mold disease control at 31.3 ppm foliar application 24 hr after inoculation at 22 +/- 2 degC measured after 3 days by curative manner
Thanatephorus cucumeris [8] = experiment: Fungicidal activity against Thanatephorus cucumeris assessed as rice sheath blight disease control at 125 ppm foliar application for 24 hr before inoculation at 26 +- 2 measured after 5 days by preventive manner
Podosphaera fuliginea [9] = experiment: Fungicidal activity against Podosphaera fuliginea assessed as cucumber powdery mildew control under greenhouse at 2 ppm foliar application 24 hr before inoculation on upper surface of leaf at 23 +/- 2 degC by preventive manner
Thanatephorus cucumeris [10] = experiment: Fungicidal activity against Thanatephorus cucumeris assessed as rice sheath blight disease control at 2 ppm foliar application for 24 hr before inoculation at 26 +- 2 measured after 5 days by preventive manner
Pyricularia oryzae [11] = experiment: Fungicidal activity against Magnaporthe oryzae assessed as rice blast disease control at 10 ppm submerged application measured after 7 days
Podosphaera fuliginea [12] = experiment: Fungicidal activity against Podosphaera fuliginea assessed as cucumber powdery mildew control under greenhouse at 2 ppm foliar application 24 hr after inoculation on upper surface of leaf at 23 +/- 2 degC by curative manner
[13] = test system: Pseudoperonospora cubensis; experiment: Fungicidal activity against Pseudoperonospora cubensis assessed as cucumber downy mildew disease control at 2 ppm foliar application 24 hr after inoculation on upper surface of leaf by curative manner
[14] = test system: Pseudoperonospora cubensis; experiment: Fungicidal activity against Pseudoperonospora cubensis assessed as cucumber downy mildew disease control at 7.8 ppm foliar application 24 hr before inoculation on upper surface of leaf by preventive manner
Podosphaera fuliginea [15] = experiment: Fungicidal activity against Podosphaera fuliginea assessed as cucumber powdery mildew control under greenhouse at 31.3 ppm foliar application 24 hr after inoculation on upper surface of leaf at 23 +/- 2 degC by curative manner
[16] = test system: Pseudoperonospora cubensis; experiment: Fungicidal activity against Pseudoperonospora cubensis assessed as cucumber downy mildew disease control at 7.8 ppm foliar application 24 hr after inoculation on upper surface of leaf by curative manner
Thanatephorus cucumeris [17] = experiment: Fungicidal activity against Thanatephorus cucumeris assessed as rice sheath blight disease control at 31.3 ppm foliar application for 24 hr before inoculation at 26 +- 2 measured after 5 days by preventive manner
[18] = test system: Pseudoperonospora cubensis; experiment: Fungicidal activity against Pseudoperonospora cubensis assessed as cucumber downy mildew disease control at 31.3 ppm foliar application 24 hr after inoculation on upper surface of leaf by curative manner
Pyricularia oryzae [19] = experiment: Fungicidal activity against Magnaporthe oryzae assessed as rice blast disease control at 0.63 ppm submerged application measured after 7 days
Podosphaera fuliginea [20] = experiment: Fungicidal activity against Podosphaera fuliginea assessed as cucumber powdery mildew control under greenhouse at 7.8 ppm foliar application 24 hr before inoculation on upper surface of leaf at 23 +/- 2 degC by preventive manner
Podosphaera fuliginea [21] = experiment: Fungicidal activity against Podosphaera fuliginea assessed as cucumber powdery mildew control under greenhouse at 31.3 ppm foliar application 24 hr before inoculation on upper surface of leaf at 23 +/- 2 degC by preventive manner
Podosphaera fuliginea [22] = experiment: Fungicidal activity against Podosphaera fuliginea assessed as cucumber powdery mildew control under greenhouse at 125 ppm foliar application 24 hr before inoculation on upper surface of leaf at 23 +/- 2 degC by preventive manner
[23] = test system: Pseudoperonospora cubensis; experiment: Fungicidal activity against Pseudoperonospora cubensis assessed as cucumber downy mildew disease control at 31.3 ppm foliar application 24 hr before inoculation on upper surface of leaf by preventive manner
Pyricularia oryzae [24] = experiment: Fungicidal activity against Magnaporthe oryzae assessed as rice blast disease control at 2.5 ppm submerged application measured after 7 days
Pyricularia oryzae [25] = experiment: Fungicidal activity against Magnaporthe oryzae assessed as rice blast disease control at 0.16 ppm submerged application measured after 7 days
Botrytis cinerea [26] = experiment: Fungicidal activity against Botryotinia fuckeliana assessed as cucumber gray mold disease control at 2 ppm foliar application 24 hr after inoculation at 22 +/- 2 degC measured after 3 days by curative manner
[27] = test system: Pseudoperonospora cubensis; experiment: Fungicidal activity against Pseudoperonospora cubensis assessed as cucumber downy mildew disease control at 2 ppm foliar application 24 hr before inoculation on upper surface of leaf by preventive manner
Podosphaera fuliginea [28] = experiment: Fungicidal activity against Podosphaera fuliginea assessed as cucumber powdery mildew control under greenhouse at 7.8 ppm foliar application 24 hr after inoculation on upper surface of leaf at 23 +/- 2 degC by curative manner

Measured: Activity

C#CCOc1cccc(Oc2ccccc2/C(=N\OC)C(=O)NC)c1
<50%: Podosphaera fuliginea [4] | [5] | Podosphaera fuliginea [12] | [13] | Podosphaera fuliginea [15] | [16] | [18] | Podosphaera fuliginea [28]
50%: Botrytis cinerea [2] | Botrytis cinerea [3] | Botrytis cinerea [7] | Pyricularia oryzae [11] | Pyricularia oryzae [19] | Pyricularia oryzae [24] | Pyricularia oryzae [25] | Botrytis cinerea [26]
70%: all other assays above

CNC(=O)/C(=N/OC)c1ccccc1Oc1ccc(Cl)cc1
70%: Thanatephorus cucumeris [1] | [6] | Thanatephorus cucumeris [8] | Podosphaera fuliginea [9] | Thanatephorus cucumeris [10] | [14] | Thanatephorus cucumeris [17] | Podosphaera fuliginea [20] | Podosphaera fuliginea [21] | Podosphaera fuliginea [22] | [23] | [27]
50%: all other assays above

CNC(=O)/C(=N/OC)c1ccccc1Oc1ccc(Br)cc1
<70%: [6] | [14] | [23] | [27]
<50%: [5] | [13] | [16] | [18]
70%: Thanatephorus cucumeris [1] | Thanatephorus cucumeris [8] | Podosphaera fuliginea [9] | Thanatephorus cucumeris [10] | Thanatephorus cucumeris [17] | Podosphaera fuliginea [20] | Podosphaera fuliginea [21] | Podosphaera fuliginea [22]
50%: all other assays above

— ChEMBL document CHEMBL3045600, “Synthesis and Fungicidal Activities of Phenoxyphenyl Alkoxyiminoacetamide Derivatives” (J Pestic Sci, 1998)
